How the values were obtained:
[1] = system: foot tapping in gerbils induced by central injection of an NK1 agonist; experiment: Gerbil foot-tapping assay; format: in vivo, Mongolian gerbils; settings: i.v.
Text: CNS penetrant NK-1 receptor antagonists for use in the present invention can be identified by their ability to inhibit foot tapping in gerbils induced by anxiogenic agents (such as pentagastrin) or central infusion of NK-1 receptor agonists such as GR73632, or caused by aversive stimulation such as foot shock or single housing, based on the method of Rupniak & Williams, Eur. J. Pharmacol., 1994, 265, 179.
Male or female Mongolian gerbils (35-70g) are anaesthetised by inhalation of an isoflurane/oxygen mixture to permit exposure of the jugular vein in order to permit administration of test compounds or vehicle in an injection volume of 5 ml/kg i.v. Alternatively, test compounds may be administered orally or by subcutaneous or intraperitoneal routes. The wound is closed and a second skin incision is made in the midline of the scalp to expose the skull. An anxiogenic agent (e.g. pentagastrin) or a selective NK-1 receptor agonist (e.g. GR73632 (d Ala[L-Pro^9,Me-Leu^10]-substance P-(7-11))) is infused directly into the cerebral ventricles (e.g. 3 pmol in 5 μl i.c.v. depending upon the agent) by vertical insertion of a cuffed 27 gauge needle to a depth of 4.5 mm below bregma. […] The duration and/or intensity of hind foot tapping is then recorded continuously for 5 minutes.

[2] = system: distress vocalisations in guinea-pig pups; experiment: Separation-induced vocalisation assay; format: in vivo, guinea-pigs; settings: p.o.
Procedure: On test days each pup receives an oral dose or a s.c. or i.p. injection of test compound or vehicle and is then immediately returned to the home cage with its mother and siblings for 30 minutes to 60 minutes (or for up to 4 hours following an oral dose, dependant upon the oral pharmacokinetics of the test compound) before social isolation for 15 minutes as described above. […] Between 6 and 8 animals receive each test compound at each dose tested.

## C[C@@H](O[C@H]1OCCN(Cc2n[nH]c(=O)[nH]2)[C@H]1c1ccc(F)cc1)c1cc(C(F)(F)F)cc(C(F)(F)F)c1 [2-(R)-(1-(R)-(3,5-bis(trifiuoromethyl)phenyl)-ethoxy)-3-(S)-(4-fluorophenyl)-4-(3-(5-oxo-1H,4H-1,2,4-triazolo)methyl)-morpholine]
[1]; 5 mins.
  gerbil foot-tapping (5 mins.): ID50: ID50 = 0.36 mg/kg i.v.
[1]; 24 hrs. prior to challenge
  gerbil foot-tapping (24 hrs.): ID50: ID50 = 0.33 mg/kg i.v.
[2]
  guinea-pig vocalisation (4 hr. pre-treatment): ID50: ID50 = 0.73 mg/kg p.o.

From patent publication US6573261B2, “Method for treating or preventing psychosomatic and psychoimmunologic disorders” (Merck & Co., Inc., priority 1997, dated 2003)
